# Molecular target: T1, FLuc-C-HiBiT (Photinus pyralis, UniProt P08659)
# T1 construct: firefly luciferase with C-terminal HiBiT tag, E. coli expressed
# Test: biochemical
# Conditions: enzyme activity, 10 uM ATP; read-out: IC50 or SDR50 (mM) / FLuc E
# T1 sequence (P08659 whole entry, looked up): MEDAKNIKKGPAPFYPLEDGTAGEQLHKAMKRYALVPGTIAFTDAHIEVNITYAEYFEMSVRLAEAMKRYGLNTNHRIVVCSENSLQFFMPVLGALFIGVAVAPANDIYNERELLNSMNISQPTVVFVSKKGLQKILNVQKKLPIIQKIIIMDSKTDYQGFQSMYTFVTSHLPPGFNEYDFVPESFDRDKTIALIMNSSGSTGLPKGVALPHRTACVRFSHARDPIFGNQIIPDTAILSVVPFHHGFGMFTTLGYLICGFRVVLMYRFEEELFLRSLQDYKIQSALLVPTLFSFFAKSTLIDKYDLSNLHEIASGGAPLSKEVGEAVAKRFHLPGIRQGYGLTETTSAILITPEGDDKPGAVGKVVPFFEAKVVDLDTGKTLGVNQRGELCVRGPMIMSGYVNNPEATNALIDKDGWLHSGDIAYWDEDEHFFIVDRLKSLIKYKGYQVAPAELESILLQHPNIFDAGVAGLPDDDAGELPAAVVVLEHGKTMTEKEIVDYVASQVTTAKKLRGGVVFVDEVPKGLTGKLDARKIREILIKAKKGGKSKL
row,IC50 [mM],SMILES
1,0.0057,O=C(Nc1ccccc1)c1nc2c(o1)CCN(Cc1cccnc1)CC2 [NCGC00413263-01]
2,0.0226,Cc1ccc(-c2ncc3c(n2)OCCN(C)C3=O)c(C)c1 [NCGC00413561-01]
3,0.0143,Cc1cnc(NC(=O)c2ccc3c(c2)OCC(=O)N(C)C3)s1 [NCGC00418511-01]
4,0.00279,Cc1cccc(NC(=O)c2ccc(-c3ccccc3)s2)c1 [NCGC00114320-01]
5,0.000881,CCOc1ccc2nc(NC(=O)c3ccccc3)sc2c1 [NCGC00099426-02]
6,> 0.03,O=C(NCc1ccc(F)cc1)N1CC(Oc2ccc(-c3nc(-c4ccccc4)no3)cc2)C1 [NCGC00441109-01]
7,0.0124,Cc1ccc(NC(=O)c2ccc3c(c2)N(C)C2CCCN2C3=O)cc1C (stereo not shown) [NCGC00452108-01]
8,0.00248,Cc1ccc2nc(-c3ccc(N)cc3)sc2c1[S+](=O)([O-])O [NCGC00091147-01]
9,0.0111,Cc1ccc(C)c(N2CCN(C(=O)C3CCN(c4nc(-c5ccc(C(C)C)cc5)no4)CC3)CC2)c1 [NCGC00134060-01]
10,0.018,Cn1cc(-c2cccc(COc3ccc4c(cnn4CC[S+](C)(=O)[O-])c3)c2)cn1 [NCGC00418049-01]
11,0.0176,N#C/C(=C\c1ccc(-c2cc(Cl)ccc2Cl)o1)C(=O)Nc1ccccc1C(=O)O [NCGC00098944-01]
12,> 0.03,Cc1cncc(C(=O)N2CCOc3c(O)cc(-c4nc5ccccc5s4)cc3C2)c1 [NCGC00433624-01]
13,0.007,Cc1cn2c(=O)cc(COC(=O)c3cccc(NC(=O)COc4ccccc4Cl)c3)nc2s1 [NCGC00130619-01]
14,> 0.03,Cc1ccc(C(=O)Nc2ccc(-c3nc4ccccc4s3)c(O)c2)cc1 [NCGC00594710-01]
15,0.00313,O=C(O)CCC1CCN(c2cc(NC3CC3)ncn2)CC1 [NCGC00432803-01]
16,0.00989,CCN1c2cc(C(=O)Nc3ccc4c(c3)OCCO4)ccc2C(=O)N2CCCCC21 (stereo not shown) [NCGC00452503-01]
17,0.0202,O=C1N(c2ccccc2)C[C@H]2CN(Cc3ccccc3)CCN12 [NCGC00393129-01]
18,> 0.03,COc1cccc(C(=O)Nc2ccc(-c3nc4ccccc4s3)c(O)c2)c1 [NCGC00594708-01]
19,0.0111,COc1ccc(-c2cc(N3CCCC(NC(=O)c4ccc5c(c4)OCO5)C3)[nH]n2)cc1 (stereo not shown) [NCGC00437602-01]
20,0.00989,Cc1c(-c2ccccc2F)[nH]c2ccc(CNC(=O)CCc3cc(O)no3)cc12 [NCGC00437347-01]
21,0.0143,C[S+](=O)([O-])CCn1ncc2cc(OCc3cccc(-c4ccccc4O)c3)ccc21 [NCGC00418051-01]

row,IC50 [mM],SMILES
1,0.00989,N#Cc1c(-n2ncnc2-c2ccc(Br)cc2)sc2c1CCCCC2 [NCGC00099350-01]
2,0.00495,Cc1ccc(NC(=O)c2ncn(-c3ccccc3)n2)cc1Cl [NCGC00107303-01]
3,0.0111,C[C@@H]1CN(c2cnc3ccccc3n2)CC[C@@]1(O)C1CCC1 [NCGC00441645-01]
4,0.00989,CCc1cccc(NC(=O)c2cc(-c3ccc[nH]3)n[nH]2)c1 [NCGC00454482-03]
5,0.0111,Cc1ccc(C2Cn3nnc(C(=O)N4CCC(C(=O)Nc5ccccc5)CC4)c3CO2)cc1 (stereo not shown) [NCGC00449585-01]
6,0.00989,COc1cccc(CNC(=O)N2c3ccccc3CC2c2noc(C3CCOCC3)n2)c1 (stereo not shown) [NCGC00471511-01]
7,0.018,COc1ccc(F)cc1-c1ccc(COc2ccc3c(cnn3CCC(=O)O)c2)cc1 [NCGC00418072-01]
8,0.00989,O[C@H]1C[C@@H](c2cc(N3CCc4c(Cl)cccc4C3)ncn2)C1 [NCGC00424922-01]
9,0.00718,COCCN1CCC2(C1)CN(C)c1ccc(C(=O)Nc3ccc(F)cc3)cc12 (stereo not shown) [NCGC00419287-01]
10,> 0.03,CCc1cccc(-n2nnc(-c3nsc(NC(=O)c4cccs4)n3)c2C)c1 [NCGC00129048-01]
11,0.00111,Cc1ccc(NC(=O)Nc2ccc(C)n(CC(=O)NCCC(C)C)c2=O)cc1 [NCGC00430794-01]
12,> 0.03,O=C(O)C1(Oc2ccc3ccccc3c2)CCN(c2ncnc3[nH]cnc23)CC1 [NCGC00441641-01]
13,> 0.03,Cc1ccc(-n2ncc3c(N4CCC(Cc5ccccc5)CC4)ncnc32)cc1 [NCGC00139020-01]
14,0.00313,O=c1oc2ccc(F)cc2cc1-c1nc(-c2cccs2)no1 [NCGC00123380-01]
15,0.00197,Cc1ccc(-c2ncc(NC(=O)c3ccccc3F)cn2)cc1 [NCGC00432887-01]
16,0.0111,O=C(Nc1ccccc1)N1CC(Oc2ccc(-c3nc(-c4ccccc4)no3)cc2)C1 [NCGC00441117-01]
17,> 0.03,COc1cc(OC)cc(C(=O)Nc2cc(-c3nc4ccccc4s3)ccc2OC)c1 [NCGC00102359-01]
18,> 0.03,COCCOc1nc(N)c2[nH]c(=O)n(Cc3ccc(C(=O)O)cc3)c2n1 [NCGC00480851-01]
19,> 0.03,OC1(CN2CCCN(c3nc4ccccc4s3)CC2)CNCCOC1 (stereo not shown) [NCGC00443145-01]
20,0.0202,Cc1ccc(-c2noc([C@@H]3Cc4[nH]cnc4CN3C(=O)Nc3cccc(F)c3)n2)cc1 [NCGC00401633-01]
21,0.00351,O=C1NCCCCCCN(C(=O)Nc2ccc3c(c2)OCCO3)[C@H]2CCC[C@@H]12 [NCGC00465105-01]

row,IC50 [mM],SMILES
1,> 0.03,Oc1cc(-c2nc3ccccc3s2)cc2c1OCCN(Cc1cccn1-c1ccccn1)C2 [NCGC00240089-01]
2,0.018,Cc1csc(NC(=O)c2ccc3c(c2)OCC(=O)N(C)C3)n1 [NCGC00418513-01]
3,0.00785,COC(=O)C1CCN(c2csc3ccc(C)cc3c2=O)CC1 [NCGC00132290-01]
4,0.00989,O=C(C1CCC1)N1c2ccccc2CC1c1noc(C2CCOCC2)n1 (stereo not shown) [NCGC00471502-01]
5,0.0143,O=C1c2cnc(-c3ccc(F)cc3)nc2OCCN1CC1CC1 [NCGC00413585-01]
6,0.00404,O=C1c2cnc(-c3ccc(Cl)cc3)nc2OCCN1CC1CC1 [NCGC00413489-01]
7,0.0128,COc1cccc(-c2ncc3c(n2)OCCN(Cc2ccccc2)C3=O)c1 [NCGC00413619-01]
8,0.0143,Cc1ccc(-n2nc(C)c([C@@H]3C=C[C@@H](NC(=O)NC(C)C)C3)c2C)cc1Cl [NCGC00399958-01]
9,0.0124,FC(F)(F)c1cc(-c2nc3ccccc3s2)cc(C(F)(F)F)c1 [NCGC00167627-01]
10,0.00351,COC(=O)c1cccc(-c2noc(-c3ccccc3F)n2)c1 [NCGC00183594-01]
11,0.00989,Cc1cc2nc(-c3cccc(NC(=O)COc4ccc(C(C)C)cc4)c3)oc2cc1C [NCGC00102495-01]
12,0.0111,COc1ccc(-c2noc(Nc3ccc(OC)c(OC)c3)n2)cc1 [NCGC00422322-01]
13,0.00394,Cc1ccc(-c2cc3c(=O)n(CCNC(=O)c4cccc(Cl)c4)ccn3n2)c(C)c1 [NCGC00456978-01]
14,> 0.03,O=C(CCC[S+](=O)([O-])c1ccc(Cl)cc1)Nc1ccc(O)c(-c2nc3ccccc3s2)c1 [NCGC00347270-01]
15,0.007,O=C1NCCCc2[nH]c(-c3cc(-c4cccc(F)c4)no3)nc21 [NCGC00447462-01]
16,> 0.03,O=C(COc1ccccc1[N+](=O)[O-])Nc1cccc(-c2nc3ccccc3s2)c1 [NCGC00119155-01]
17,0.014,O=C(NCCc1c[nH]cn1)c1ccc2nc(-c3ccc(F)cc3)cn2c1 [NCGC00444507-03]
18,0.00624,COc1ccc(-c2nc3ccccc3s2)cc1NC(C)=O [NCGC00141118-01]
19,0.00624,Cc1ccc(NC(=O)c2ncoc2-c2ccco2)cc1Cl [NCGC00131543-01]

# From paper PMC12064818, “A general assay platform to study protein pharmacology using ligand-dependent structural dynamics” (Nature Communications, 2025)
